Source: the NIST ThermoML archive (doi:10.1016/j.jct.2016.12.019)
Numbers after ± are expanded uncertainties.

Assay: xn = mol fraction of the nth substance listed
Details: 100 kPa, Liquid; for viscosity: Capillary tube (Ostwald / Ubbelohde) method; for speed of sound: Frequency=2 MHz, Linear variable-path acoustic interferometer; for mass density: Vibrating tube method

CCN(CC)c1ccccc1 [N,N-diethylaniline] + CCCCCCCCCCO
Details	mass density [kg/m3]	speed of sound [m/s]	viscosity [mPa·s]
303.15 K, x1 = 0.1141	831.36 ± 1.1	1364.5 ± 8.3	7.932 ± 0.22
303.15 K, x1 = 0.2218	839.38 ± 1.1	1366.8 ± 8.4	6.521 ± 0.18
303.15 K, x1 = 0.3717	852.13 ± 1.1	1372.3 ± 8.4	4.96 ± 0.14
303.15 K, x1 = 0.4886	863.05 ± 1.1	1378.1 ± 8.4	4.007 ± 0.11
303.15 K, x1 = 0.5815	872.51 ± 1.1	1383.9 ± 8.5	3.386 ± 0.092
303.15 K, x1 = 0.6645	881.58 ± 1.1	1390.1 ± 8.5	2.918 ± 0.079
303.15 K, x1 = 0.7545	892.16 ± 1.1	1398.3 ± 8.5	2.494 ± 0.068
303.15 K, x1 = 0.8324	902.01 ± 1.1	1406.8 ± 8.6	2.185 ± 0.059
303.15 K, x1 = 0.9121	912.85 ± 1.1	1417.5 ± 8.7	1.929 ± 0.052
303.15 K, x1 = 1	925.8 ± 1.1	1432 ± 8.7	1.711 ± 0.046
308.15 K, x1 = 0.1141	827.63 ± 1.1	1345.2 ± 8.2	6.651 ± 0.18
308.15 K, x1 = 0.2218	835.9 ± 1.1	1347.8 ± 8.2	5.497 ± 0.15
308.15 K, x1 = 0.3717	848.55 ± 1.1	1353.7 ± 8.3	4.217 ± 0.12
308.15 K, x1 = 0.4886	859.44 ± 1.1	1359.9 ± 8.3	3.43 ± 0.094
308.15 K, x1 = 0.5815	868.83 ± 1.1	1366 ± 8.3	2.914 ± 0.079
308.15 K, x1 = 0.6645	877.84 ± 1.1	1372.5 ± 8.4	2.523 ± 0.069
308.15 K, x1 = 0.7545	888.35 ± 1.1	1380.9 ± 8.4	2.167 ± 0.059
308.15 K, x1 = 0.8324	898.14 ± 1.1	1389.7 ± 8.5	1.913 ± 0.052
308.15 K, x1 = 0.9121	908.91 ± 1.1	1400.6 ± 8.6	1.705 ± 0.046
308.15 K, x1 = 1	921.8 ± 1.1	1416 ± 8.6	1.537 ± 0.041
313.15 K, x1 = 0.1141	824 ± 1.1	1329.2 ± 8.1	5.619 ± 0.15
313.15 K, x1 = 0.2218	832.24 ± 1.1	1331.8 ± 8.1	4.671 ± 0.13
313.15 K, x1 = 0.3717	844.85 ± 1.1	1337.5 ± 8.2	3.616 ± 0.099
313.15 K, x1 = 0.4886	855.71 ± 1.1	1343.5 ± 8.2	2.963 ± 0.081
313.15 K, x1 = 0.5815	865.07 ± 1.1	1349.5 ± 8.2	2.529 ± 0.069
313.15 K, x1 = 0.6645	874.05 ± 1.1	1355.7 ± 8.3	2.199 ± 0.06
313.15 K, x1 = 0.7545	884.52 ± 1.1	1363.8 ± 8.3	1.898 ± 0.052
313.15 K, x1 = 0.8324	894.28 ± 1.1	1372.3 ± 8.4	1.687 ± 0.046
313.15 K, x1 = 0.9121	905.03 ± 1.1	1382.9 ± 8.4	1.52 ± 0.041
313.15 K, x1 = 1	917.9 ± 1.1	1398 ± 8.5	1.4 ± 0.038
318.15 K, x1 = 0.1141	819.43 ± 1.1	1320.2 ± 8	4.835 ± 0.13
318.15 K, x1 = 0.2218	827.69 ± 1.1	1321.6 ± 8.1	4.032 ± 0.11
318.15 K, x1 = 0.3717	840.35 ± 1.1	1326.2 ± 8.1	3.137 ± 0.085
318.15 K, x1 = 0.4886	851.26 ± 1.1	1331 ± 8.1	2.582 ± 0.07
318.15 K, x1 = 0.5815	860.67 ± 1.1	1336 ± 8.2	2.21 ± 0.06
318.15 K, x1 = 0.6645	869.69 ± 1.1	1341.2 ± 8.2	1.928 ± 0.052
318.15 K, x1 = 0.7545	880.21 ± 1.1	1348 ± 8.2	1.672 ± 0.045
318.15 K, x1 = 0.8324	890.03 ± 1.1	1355.4 ± 8.3	1.493 ± 0.04
318.15 K, x1 = 0.9121	900.83 ± 1.1	1364.7 ± 8.3	1.359 ± 0.037
318.15 K, x1 = 1	913.8 ± 1.1	1378 ± 8.4	1.276 ± 0.034
